Entries after “also recorded” stand apart in the source; their conditions may differ. Counter-ions that a name gives are not always drawn.
Columns and labels:
MAOB = MAOB production in mice administered hair growth modulators; assay type: in vivo
follicles in telogen [1] = assay: Telogen Conversion Assay (TCA), visual melanogenesis grade as indicator of hair growth; assay type: in vivo, C57Bl/6 mice; details: topical; for hair growth induction in vivo (FIG. 1): compound alone; for hair growth induction in vivo (FIG. 1) / Activity (improved hair growth by inducing anagen): 19 days, C57Bl/6 mice; for timing of hair growth induction: C57BL/6 mice, selegiline 1% or Triac 0.06%, 32 days, FIG. 2
Procedure: The skin color of mice subjected to treatment is graded visually on a scale from zero to four (0=white skin; 1=light gray skin; 2=blue/black spots; 3=large blue/black region; 4=mostly blue/black skin). As a subject transitions from telogen to anagen, the skin color becomes darker.
Triac (0.06%) was administered as a positive control. Animals were scored for hair growth on the basis of melanogenesis during the treatment period.

follicles in telogen [2] = assay: Hair growth induction (visual melanogenesis grades) in C3H mice; assay type: in vivo; details: topical, selegiline 1% or Triac 0.06%, 32 days
Procedure: Several MAO inhibitors were tested for the ability to improve hair growth using the Telogen Conversion Assay (TCA) described in, e.g., International Patent Publication No. 2000/73265. […] The skin color of mice subjected to treatment is graded visually on a scale from zero to four (0=white skin; 1=light gray skin; 2=blue/black spots; 3=large blue/black region; 4=mostly blue/black skin). As a subject transitions from telogen to anagen, the skin color becomes darker.
The potential of selegiline to induce hair growth in different mouse strains also was studied. Selegiline (1%) was topically administered to a C3H mice and C57BL/6 mice. Triac (0.06%) was used as a positive control. […] Both strains of mice also responded to the MAO inhibitor; however, the strains responded in a manner consistent with natural inter-strain differences in transitioning to anagen. The telogen phase in C3H mice is longer than telogen in C57BL/6 mice.

## C[C@]12CCC(=O)C[C@@H]1CC[C@@H]1[C@@H]2CC[C@]2(C)[C@@H](O)CC[C@@H]12 [DHT, dihydrotestosterone]
MAOB; C57Bl/6 mice, 12.5 mg/day subcutaneous continuous release pellet
  MAOB levels: increased greater than two fold

## C#CCN(C)CCCOc1ccc(Cl)cc1Cl [Clorgiline]
Follicles in telogen [1]
  hair growth induction in vivo (FIG. 1): induced significant hair growth
Follicles in telogen [1]; dose 1%
  Activity (improved hair growth by inducing anagen): YES

## C#CCN[C@@H]1CCc2ccccc21 [Rasagiline mesylate]
Follicles in telogen [1]
  hair growth induction in vivo (FIG. 1): Robust hair growth induction
Follicles in telogen [1]; dose 1%
  Activity (improved hair growth by inducing anagen): YES

## C#CCN(C)Cc1ccccc1 [Pargyline HCL]
Follicles in telogen [1]
  hair growth induction in vivo (FIG. 1): induced significant hair growth
Follicles in telogen [1]; dose 1%
  Activity (improved hair growth by inducing anagen): YES

## NCCNC(=O)c1ccc(Cl)cn1 [Lazabemide]
Follicles in telogen [1]
  hair growth induction in vivo (FIG. 1): not shown to induce hair growth alone

## NNCCc1ccccc1 [Phenelzine]
Follicles in telogen [1]
  hair growth induction in vivo (FIG. 1): induced significant hair growth
Follicles in telogen [1]; dose 0.5%
  Activity (improved hair growth by inducing anagen): YES

## O=C(O)Cc1cc(I)c(Oc2ccc(O)c(I)c2)c(I)c1 [Triac, Triiodothyroacetic Acid]
Follicles in telogen [1]
  timing of hair growth induction: hair growth was induced at the same time for both mouse strains; also recorded: induced hair growth simultaneously
Follicles in telogen [2]; FIG. 2
  timing of hair growth induction: hair growth was induced at the same time for both mouse strains; also recorded: induced hair growth simultaneously
MAOB; C3H mice, 0.06%
  MAOB levels: Reduced MAOB levels

## C#CCN(C)[C@H](C)Cc1ccccc1 [Selegiline Hydrochloride]
Follicles in telogen [1]; Hydrochloride
  timing of hair growth induction: induced hair regrowth significantly earlier; also recorded: initiated hair growth significantly sooner than treatment with vehicle
Follicles in telogen [1]
  hair growth induction in vivo (FIG. 1): Robust hair growth induction
Follicles in telogen [1]; dose 1%
  Activity (improved hair growth by inducing anagen): YES
Follicles in telogen [2]; FIG. 2, Hydrochloride
  timing of hair growth induction: induced hair regrowth significantly earlier; also recorded: initiated hair growth significantly sooner than treatment with vehicle
